Reference: publication PMC1448180, “Small-molecule and mutational analysis of allosteric Eg5 inhibition by monastrol” (BMC Chemical Biology, 2006)
Where a chain is given by its changes, count along the chain named. Where two headings read alike, the source gives them in different places.

Experiments:
[1] = system: Xenopus Eg5; design: method as in PMID 10542155, PMID 10973989; conditions: cited from earlier work
[2] = molecular target: T1, hEg5-367H (Homo sapiens, UniProt P52732); experiment: ATP hydrolysis by recombinant human Eg5 motor domain (NADH-enzyme coupled assay); type: biochemical
T1 construct: motor domain (amino acid residues 1–367) of human Eg5; His6 (C); made in house
T1 sequence (P52732 1-367): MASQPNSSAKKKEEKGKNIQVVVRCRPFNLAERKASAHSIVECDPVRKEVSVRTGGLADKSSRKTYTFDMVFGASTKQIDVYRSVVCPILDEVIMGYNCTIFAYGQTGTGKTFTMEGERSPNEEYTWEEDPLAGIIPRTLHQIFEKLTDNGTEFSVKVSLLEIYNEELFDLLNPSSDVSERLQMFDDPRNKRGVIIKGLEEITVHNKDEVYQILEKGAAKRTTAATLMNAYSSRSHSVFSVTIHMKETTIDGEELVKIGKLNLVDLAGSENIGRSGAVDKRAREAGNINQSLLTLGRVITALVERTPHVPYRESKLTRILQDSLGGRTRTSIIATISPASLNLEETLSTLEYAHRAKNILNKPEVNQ
Procedure: Figure 2 Structure-activity relationship of monastrol derivatives. (A) Scheme depicting the Biginelli condensation, a one-pot reaction for preparing monastrol derivatives. […] Each data point is the average of three independent experiments. […] Each cell-based assay was performed in duplicate.
We used a modified PCR mutagenesis protocol to introduce mutations into hEg5-367H, a plasmid encoding the C-terminally His6-tagged motor domain (amino acid residues 1–367) of human Eg5. The wild-type and mutant proteins were expressed and purified using Ni-NTA affinity chromatography and concentrated to between 3 and 10 mg/ml protein as described.
(§1) ATP hydrolysis by recombinantly expressed kinesin motor domains was measured using an NADH-enzyme coupled assay. ATP hydrolysis was measured in KC25 buffer supplemented with 5 μM taxol, 1 mM ATP-KOH (pH 7.0), the appropriate concentration of motor domain, and the appropriate concentrations of taxol-polymerized microtubules.

[3] = molecular target: T2, Klp61F-364H (Drosophila melanogaster, UniProt P46863); experiment: ATP hydrolysis by Klp-61F motor domain (NADH-enzyme coupled assay); type: biochemical, D. melanogaster
T2 construct: His6 (C); made in house; host or cells: vector pRSETa
T2 sequence (P46863 1-364): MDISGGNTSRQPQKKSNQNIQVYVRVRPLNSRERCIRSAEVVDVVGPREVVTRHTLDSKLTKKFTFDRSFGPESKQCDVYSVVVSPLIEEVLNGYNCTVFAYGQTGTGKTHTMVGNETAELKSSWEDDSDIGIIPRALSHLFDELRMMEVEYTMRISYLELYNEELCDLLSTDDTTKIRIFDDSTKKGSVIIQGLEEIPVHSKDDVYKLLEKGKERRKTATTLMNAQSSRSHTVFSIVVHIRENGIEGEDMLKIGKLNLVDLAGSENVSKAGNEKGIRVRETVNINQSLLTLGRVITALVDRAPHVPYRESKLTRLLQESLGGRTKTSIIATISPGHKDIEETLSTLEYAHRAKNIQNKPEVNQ
Procedure: Each data point is the average of three independent experiments.
as §1

[4] = molecular target: T3, hEg5-367H (Y211M) (Homo sapiens, UniProt P52732, Y211M); experiment: ATP hydrolysis by Eg5 motor domain mutant Y211M; type: biochemical; conditions: Figure 4B; legend: basal ATP hydrolysis; read-out: IC50(μM) of monastrol, (Y211M)
T3 sequence (P52732 1-367 Y211M): T1 sequence (P52732 1-367) with Y211M
Description: Figure 4 Mutagenesis of the monastrol binding site in human Eg5. (A) Design of mutations in the human Eg5 motor domain. Amino acid side chains that are not conserved between Eg5 and conventional kinesin were targeted, either introducing chimeric or rationally designed mutations (asterix for targeted point mutants) to test the contribution of residues to the drug-sensitivity of Eg5. (B) Steady-state enzymatic parameters for engineered human Eg5 motor domain mutants. Steady-state ATP hydrolysis by Eg5 was measured using an NADH-enzyme coupled assay varying the concentration of ATP, microtubules, or monastrol to obtain the microtubule concentration for half-maximal stimulation (K0.5MT), the maximal rate of microtubule-stimulated ATP hydrolysis (kcat), and the concentration of monastrol that inhibits basal ATP hydrolysis by 50 % (IC50), as described.
We used a modified PCR mutagenesis protocol to introduce mutations into hEg5-367H, a plasmid encoding the C-terminally His6-tagged motor domain (amino acid residues 1–367) of human Eg5. […]
as §1

[5] = system: KC167 cells; experiment: Spindle phenotype of Drosophila cells treated with monastrol; type: cell-based, D. melanogaster; conditions: data not shown
Description: Monastrol binds a hydrophobic pocket between loop 5 and α3 that is poorly conserved among kinesins, resulting in specificity for vertebrate Eg5 homologs. […] Monastrol is known to inhibit human and Xenopus Eg5 [7, 9], but not BimC [27]. To test its effect on D. rerio Eg5 and Klp-61F, we treated AB9 and KC167 cells with monastrol. […] To obtain unambiguous evidence, we cloned the motor domain of Klp-61F and subjected the recombinant protein to ATPase assays in the presence or absence of microtubules.
Conditions for growing the following cell lines are as described: D. rerio AB9 (37), D. melanogaster KC167 [38], and BS-C-1 green monkey kidney cells. For immunofluorescence microscopy, cells were grown on 12 mm circular coverslips to 30 % confluence, treated medium supplemented with drug and 0.2% DMSO, or a DMSO alone, for 6 hours, fixed with formaldehyde, and stained for DNA and microtubules, as described. D. melanogaster KC167 cells were cultured in Schneider's Drosophila Medium (GIBCO) whereas D. rerio AB9 cells and BS-C-1 green monkey kidney cells were cultured at 37°C in Dulbecco's Minimal medium in the presence of 10 % heat inactivated fetal calf serum.

Question: For `CCOC(=O)C1=C(C)NC(=S)NC1c1cccc(O)c1` (stereo not drawn) [Monastrol], which “Inhibition of Xenopus Eg5” value [1] is on record?
Answer: The value was “inhibit”.

Question: And the IC50 ([2]; 500 nM hEg5-367H, KC25 buffer, 1 mM ATP-KOH (pH 7.0), 1 μM taxol-stabilized microtubules, read-out: IC50 (μM), inhibition of ATP hydrolysis by Eg5 motor domain)?
Answer: Its IC50 is 5.2 ± 0.4 µM.

Question: What about the IC50 ([2]; wild-type motor domain, Figure 4B, legend: basal ATP hydrolysis, read-out: IC50(μM) of monastrol, hEg5-367H) of the same molecule?
Answer: Its IC50 is 10 ± 2 µM.

Question: And the “Inhibition of microtubule-stimulated ATP hydrolysis by Klp-61F motor domain, in words” value [3]?
Answer: The value was “weakly inhibited”.

Question: What about the IC50 [4] of the same molecule?
Answer: Its IC50 is 0.8 ± 0.3 µM.

Question: What about the “Effect on spindles in Drosophila cells” value [5] of the same molecule?
Answer: The value was “normal, bipolar spindles”.
